From patent US9624182B2, “Compounds as lysophosphatidic acid receptor antagonists” (Amira Pharmaceuticals, Inc., priority 2009, dated 2017)

Target: T1, human LPA1 (Homo sapiens, UniProt Q92633)
T1 construct: the full-length cDNA for human LPA1 was obtained by PCR of the reverse transcription reaction; expressed in transfected cells
Assay: LPA1 calcium flux assay
Assay type: cell-based
Conditions: CHO cells expressing human LPA1, stimulated with 10 nM LPA; read-out: HLPA1 Ca Flux IC50
Description: A 1.1 kb cDNA encoding the human LPA1 receptor was cloned from human lung. Human lung RNA (Clontech Laboratories, Inc. USA) was reverse transcribed using the RETROscript kit (Ambion, Inc.) and the full-length cDNA for human LPA1 was obtained by PCR of the reverse transcription reaction. The nucleotide sequence of the cloned human LPA1 was determined by sequencing and confirmed to be identical to the published human LPA1 sequence (An et al. Biochenm. Biophys. Res. Commun. 231:619 (1997). The cDNA was cloned into the pCDNA5/FRT expression plasmid and transfected in CHO cells using lipofectamine 2000 (Invitrogen Corp., USA). Clones stably expressing human LPA1 were selected using hygromycin and identified as cells that show Ca-influx in response to LPA.
Human LPA1 or LPA3 expressing CHO cells are seeded at 20,000-45,000 cells per well in a 96-well poly-D-lysine coated plate one or two days before the assay. Prior to the assay, the cells are washed once with PBS and then cultured in serum-free media overnight. On the day of the assay, a calcium indicator dye (Calcium 4, Molecular Devices) in assay buffer (HBSS with Ca^2+ and Mg^2+ and containing 20 mM Hepes and 0.3% fatty-acid free human serum albumin) is added to each well and incubation continued for 1 hour at 37° C. 10 μl of test compounds in 2.5% DMSO are added to the cells and incubation continued at room temperature for 30 minutes. Cells are the stimulated by the addition of 10 nM LPA and intracellular Ca^2+ measured using the Flexstation 3 (Molecular Devices). IC50s are determined using Graphpad prism analysis of drug titration curves.

T1 sequence (Q92633 whole entry): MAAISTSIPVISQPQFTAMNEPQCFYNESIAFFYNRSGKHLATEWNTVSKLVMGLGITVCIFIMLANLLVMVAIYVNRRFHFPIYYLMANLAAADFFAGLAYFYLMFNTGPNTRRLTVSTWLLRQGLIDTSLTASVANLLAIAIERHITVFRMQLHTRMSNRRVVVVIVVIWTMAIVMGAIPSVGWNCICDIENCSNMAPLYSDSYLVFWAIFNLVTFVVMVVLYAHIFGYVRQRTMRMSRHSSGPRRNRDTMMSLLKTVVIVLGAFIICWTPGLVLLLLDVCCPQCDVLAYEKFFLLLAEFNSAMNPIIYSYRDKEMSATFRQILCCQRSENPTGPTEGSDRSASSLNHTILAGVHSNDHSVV

Row | SMILES | IC50 [nM]
1 | Cc1noc(-c2ccc(-c3ccc([C@@H]4C[C@H]4C(=O)O)cc3)cc2)c1/C=C/CCc1ccccc1 (relative stereo) [Compound 1-128, (trans)-2-{4′-[3-Methyl-4-(4-phenyl-but-1-enyl)-isoxazol-5-yl]-biphenyl-4-yl}-cyclopropanecarboxylic acid] | 1000 to 50000
2 | Cc1noc(-c2ccc(-c3ccc([C@H]4C[C@H]4C(=O)O)cc3)cc2)c1/C=C/CCc1ccccc1 (relative stereo) [Compound 1-129, (cis)-2-{4′-[3-Methyl-4-(4-phenyl-but-1-enyl)-isoxazol-5-yl]-biphenyl-4-yl}-cyclopropanecarboxylic acid] | < 300
3 | Cc1noc(-c2ccc(-c3ccc([C@@H]4C[C@H]4C(=O)O)cc3)cc2)c1CSCCc1ccccc1 (relative stereo) [Compound 1-130, (trans)-2-[4′-(3-Methyl-4-phenethylsulfanylmethyl-isoxazol-5-yl)-biphenyl-4-yl]-cyclopropanecarboxylic acid] | 300 to 1000
4 | Cc1noc(-c2ccc(-c3ccc([C@H]4C[C@H]4C(=O)O)cc3)cc2)c1CSCCc1ccccc1 (relative stereo) [Compound 1-131, (cis)-2-[4′-(3-Methyl-4-phenethylsulfanylmethyl-isoxazol-5-yl)-biphenyl-4-yl]-cyclopropanecarboxylic acid] | < 300
5 | Cc1noc(-c2ccc(-c3ccc([C@H]4C[C@H]4C(=O)O)cc3)cc2)c1CC(F)(F)CCc1ccccc1 (relative stereo) [Compound 1-135, (cis)-2-{4′-[4-(2,2-Difluoro-4-phenyl-butyl)-3-methyl-isoxazol-5-yl]-biphenyl-4-yl}-cyclopropanecarboxylic acid] | < 300
6 | Cc1noc(-c2ccc(-c3ccc([C@H]4C[C@H]4C(=O)O)cc3)cc2)c1C(O)CCCc1ccccc1 (relative stereo) [Compound 1-144, (cis)-2-{4′-[4-(1-Hydroxy-4-phenyl-butyl)-3-methyl-isoxazol-5-yl]-biphenyl-4-yl}-cyclopropanecarboxylic acid] | < 300
7 | Cc1noc(-c2ccc(-c3ccc([C@H]4C[C@H]4C(=O)O)cc3)cc2)c1CSCCc1ccccc1 (single isomer, unassigned) [Compound 1-149, (cis)-2-[4′-(3-Methyl-4-phenethylsulfanylmethyl-isoxazol-5-yl)-biphenyl-4-yl]-cyclopropanecarboxylic acid] | < 300
8 | Cc1noc(-c2ccc(-c3ccc([C@H]4C[C@H]4C(=O)O)cc3)cc2)c1CSCCc1ccccc1 (single isomer, unassigned) [Compound 1-150, (cis)-2-[4′-(3-Methyl-4-phenethylsulfanylmethyl-isoxazol-5-yl)-biphenyl-4-yl]-cyclopropanecarboxylic acid] | 1000 to 50000
9 | Cc1noc(-c2ccc(-c3ccc(C4(C(=O)O)CC4)cc3)cc2)c1C(O)CCCc1ccccc1 (single isomer, unassigned) [Compound 1-156, 1-{4′-[4-(1-Hydroxy-4-phenyl-butyl)-3-methyl-isoxazol-5-yl]-biphenyl-4-yl}-cyclopropanecarboxylic acid] | < 300
10 | Cc1noc(-c2ccc(-c3ccc(CC(=O)O)cc3)cc2)c1C(O)CCCc1ccccc1 (single isomer, unassigned) [Compound 1-174, {4′-[4-(1-Hydroxy-4-phenyl-butyl)-3-methyl-isoxazol-5-yl]-biphenyl-4-yl}-acetic acid] | < 300
11 | Cc1noc(-c2ccc(-c3ccc(C4(CC(=O)O)CC4)cc3)cc2)c1C(O)CCCc1ccccc1 (single isomer, unassigned) [Compound 1-176, (1-{4′-[4-(1-Hydroxy-4-phenyl-butyl)-3-methyl-isoxazol-5-yl]-biphenyl-4-yl}-cyclopropyl)-acetic acid] | < 300
12 | Cc1noc(-c2ccc(-c3ccc(C4(CC(=O)O)CC4)cc3)cc2)c1C(O)CCCc1ccccc1 (single isomer, unassigned) [Compound 1-177, (1-{4′-[4-(1-Hydroxy-4-phenyl-butyl)-3-methyl-isoxazol-5-yl]-biphenyl-4-yl}-cyclopropyl)-acetic acid] | < 300
13 | Cc1noc(-c2ccc(-c3ccc(C4(C(=O)O)CC4)cc3)cc2)c1C(O)COCc1ccccc1 (single isomer, unassigned) [Compound 1-198, 1-{4′-[4-(2-Benzyloxy-1-hydroxy-ethyl)-3-methyl-isoxazol-5-yl]-biphenyl-4-yl}-cyclopropanecarboxylic acid] | < 300
14 | Cc1noc(-c2ccc(-c3ccc(C4(C(=O)O)CC4)cc3)cc2)c1C(O)COCc1ccccc1 (single isomer, unassigned) [Compound 1-199, 1-{4′-[4-(2-Benzyloxy-1-hydroxy-ethyl)-3-methyl-isoxazol-5-yl]-biphenyl-4-yl}-cyclopropanecarboxylic acid] | < 300
15 | Cc1noc(-c2ccc(-c3ccc(C4CC4C(=O)O)cc3)cc2)c1[C@H](O)COCc1ccccc1 (single isomer, unassigned) [Compound 1-216] | < 300
16 | Cc1noc(-c2ccc(-c3ccc(C4CC4C(=O)O)cc3)cc2)c1[C@H](O)COCc1ccccc1 (single isomer, unassigned) [Compound 1-217] | < 300
17 | Cc1noc(-c2ccc(-c3ccc(C4(C(=O)O)CC4)cc3)cc2)c1NC(C)CCc1ccccc1 (single isomer, unassigned) [Compound 1-220, 1-{4′-[3-Methyl-4-(1-methyl-3-phenyl-propylamino)-isoxazol-5-yl]-biphenyl-4-yl}-cyclopropanecarboxylic acid] | < 300
18 | Cc1noc(-c2ccc(-c3ccc(C4(C(=O)O)CC4)cc3)cc2)c1NC(C)CCc1ccccc1 (single isomer, unassigned) [Compound 1-221, 1-{4′-[3-Methyl-4-(1-methyl-3-phenyl-propylamino)-isoxazol-5-yl]-biphenyl-4-yl}-cyclopropanecarboxylic acid] | < 300
19 | Cc1noc(-c2ccc(-c3ccc(CCC(=O)O)cc3)cc2)c1NC(C)CCc1cccc(C(F)(F)F)c1 (single isomer, unassigned) [Compound 1-234, 3-(4′-{3-Methyl-4-[1-methyl-3-(3-trifluoromethyl-phenyl)-propylamino]-isoxazol-5-yl}-biphenyl-4-yl)-propionic acid] | > 50000
20 | Cc1noc(-c2ccc(-c3ccc(CCC(=O)O)cc3)cc2)c1NC(C)CCc1cccc(C(F)(F)F)c1 (single isomer, unassigned) [Compound 1-235, 3-(4′-{3-Methyl-4-[1-methyl-3-(3-trifluoromethyl-phenyl)-propylamino]-isoxazol-5-yl}-biphenyl-4-yl)-propionic acid] | < 300
21 | Cc1noc(-c2ccc(-c3ccc(C4(C(=O)O)CC4)cc3)cc2)c1NC(C)CCc1cccc(Cl)c1 (single isomer, unassigned) [Compound 1-239, 1-(4′-{4-[3-(3-Chloro-phenyl)-1-methyl-propylamino]-3-methyl-isoxazol-5-yl}-biphenyl-4-yl)-cyclopropanecarboxylic acid] | < 300
22 | Cc1noc(-c2ccc(-c3ccc(C4(C(=O)O)CC4)cc3)cc2)c1NC(C)CCc1cccc(Cl)c1 (single isomer, unassigned) [Compound 1-240, 1-(4′-{4-[3-(3-Chloro-phenyl)-1-methyl-propylamino]-3-methyl-isoxazol-5-yl}-biphenyl-4-yl)-cyclopropanecarboxylic acid] | < 300
23 | Cc1noc(-c2ccc(-c3ccc(C4(C(=O)O)CC4)cc3)cc2)c1C(O)C(F)(F)CCc1ccccc1 (single isomer, unassigned) [Compound 1-254, 1-{4′-[4-(2,2-Difluoro-1-hydroxy-4-phenyl-butyl)-3-methyl-isoxazol-5-yl]-biphenyl-4-yl}-cyclopropanecarboxylic acid] | 300 to 1000
24 | Cc1noc(-c2ccc(-c3ccc(C4(C(=O)O)CC4)cc3)cc2)c1/C=C/[S+]([O-])Cc1ccccc1 (single isomer, unassigned) [Compound 1-262, 1-(4′-{3-Methyl-4-[(E)-2-(phenylmethanesulfinyl)-vinyl]-isoxazol-5-yl}-biphenyl-4-yl)-cyclopropanecarboxylic acid] | < 300
25 | Cc1noc(-c2ccc(-c3ccc(C4(C(=O)O)CC4)cc3)cc2)c1/C=C/[S+]([O-])Cc1ccccc1 (single isomer, unassigned) [Compound 1-263, 1-(4′-{3-Methyl-4-[(E)-2-(phenylmethanesulfinyl)-vinyl]-isoxazol-5-yl}-biphenyl-4-yl)-cyclopropanecarboxylic acid] | 1000 to 50000
26 | Cc1noc(-c2ccc(-c3ccc(C4(C(=O)O)CC4)cc3)cc2)c1NC(C)C(O)Cc1ccccc1 (single isomer, unassigned) [Compound 1-282, 1-{4′-[4-(2-Hydroxy-1-methyl-3-phenyl-propylamino)-3-methyl-isoxazol-5-yl]-biphenyl-4-yl}-cyclopropanecarboxylic acid] | < 300
